The source of these data is BindingDB's records for doi:10.7270/Q2MP51PC (Pcmd, 2008).

For this experiment, the target named is T1, Complement C1s subcomponent (Homo sapiens, UniProt P09871).
T1 sequence (P09871 whole entry): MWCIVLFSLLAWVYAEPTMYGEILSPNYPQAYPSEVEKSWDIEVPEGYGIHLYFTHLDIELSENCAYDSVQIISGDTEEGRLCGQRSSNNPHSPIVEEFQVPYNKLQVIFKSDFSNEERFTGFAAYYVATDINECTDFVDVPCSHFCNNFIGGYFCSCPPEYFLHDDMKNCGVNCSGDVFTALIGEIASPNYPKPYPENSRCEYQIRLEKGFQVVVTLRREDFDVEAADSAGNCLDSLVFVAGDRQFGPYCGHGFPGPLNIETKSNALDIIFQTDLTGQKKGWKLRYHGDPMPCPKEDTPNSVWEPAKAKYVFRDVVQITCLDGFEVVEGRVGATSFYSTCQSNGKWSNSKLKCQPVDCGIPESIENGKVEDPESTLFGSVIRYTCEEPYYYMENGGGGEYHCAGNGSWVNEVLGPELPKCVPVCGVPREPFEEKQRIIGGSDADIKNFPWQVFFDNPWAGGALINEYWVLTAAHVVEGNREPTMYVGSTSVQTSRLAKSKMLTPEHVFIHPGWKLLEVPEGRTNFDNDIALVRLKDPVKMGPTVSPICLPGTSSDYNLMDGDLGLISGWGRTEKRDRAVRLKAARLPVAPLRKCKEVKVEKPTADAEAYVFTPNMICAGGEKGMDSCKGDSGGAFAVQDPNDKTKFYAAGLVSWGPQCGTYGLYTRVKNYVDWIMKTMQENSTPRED
In words: concentration-response of complement C1s inhibitors – biochemical, dose response (AID 787).

Where only a bound is given, the exact number is not on record here.

By IC50 is commonly meant the concentration that inhibits the measured activity by half. Read a low IC50 as inhibition by little substance. The compound `O=C(CN1CCN(CC(=O)Nc2ccccn2)CC1)Nc1ccccn1` [2-[4-[2-keto-2-(2-pyridylamino)ethyl]piperazino]-N-(2-pyridyl)acetamide] registered an IC50 of more than 50 µM.

For `CCCCC(=O)Nc1ccc(NC(=O)c2cccnc2)cn1` [MLS000068397], the IC50 was more than 50 µM.

`CC(=O)c1c(OC(=O)c2ccco2)c2ccccc2n1C` [SMR000109417] came in with an IC50 of 25.9 µM.

In turn, `COc1ccc(S(=O)(=O)n2nc(OC(=O)c3ccco3)cc2N)cc1` [MLS000033887] showed an IC50 of 11.3 µM.

For `CC(C)NS(=O)(=O)c1cc(C(=O)O)ccc1Cl` [4-chloranyl-3-(propan-2-ylsulfamoyl)benzoic acid], the half-maximal inhibitory concentration (IC50) is more than 50 µM.

On to `COc1ccc(NC(=O)c2[nH]cnc2C(=O)Nc2ccccc2C)cc1` [SMR000020470], for which the IC50 was more than 50 µM.

For `O=c1oc(-c2ccco2)nc2ccccc12` [2-Furan-2-yl-benzo[d][1,3]oxazin-4-one], 4.62 µM corresponded to half-maximal inhibition (IC50).

In turn, `CC(=O)c1cc2c(cc1NC(=O)C1CC=CCC1C(=O)O)OCO2` (stereo unspecified) [6-[(6-acetyl-1,3-benzodioxol-5-yl)carbamoyl]cyclohex-3-ene-1-carboxylic acid] had an IC50 of more than 50 µM.

`Cc1nc(CNS(=O)(=O)c2cc(C)c(C)cc2C)cs1` [2,4,5-trimethyl-N-[(2-methyl-1,3-thiazol-4-yl)methyl]benzenesulfonamide] showed an IC50 of more than 50 µM.

In turn, `O=C(c1ccco1)N1C(=O)c2cccc3cccc1c23` [1-(2-furoyl)benzo[cd]indol-2(1H)-one] showed an IC50 of more than 50 µM.

As to `O=C(NC1CCS(=O)(=O)C1)c1cccc(S(=O)(=O)N2CCCCC2)c1` (stereo unspecified) [MLS000049608], the IC50 was more than 50 µM.

Compound `CCOc1ccc(C2CC(c3cccc(Cl)c3)n3nc(N)nc3N2)cc1` (stereo unspecified) [7-(3-chlorophenyl)-5-(4-ethoxyphenyl)-1,5,6,7-tetrahydro-[1,2,4]triazolo[1,5-a]pyrimidin-2-amine] registered an IC50 of more than 50 µM.

In turn, `COc1cc(C(Nc2ccccn2)c2ccc3ccc(C)nc3c2O)cc(OC)c1O` (stereo unspecified) [7-[(3,5-dimethoxy-4-oxidanyl-phenyl)-(pyridin-2-ylamino)methyl]-2-methyl-quinolin-8-ol] gave an IC50 of more than 50 µM.

Take `COC(=O)c1ccc(OC(=O)c2ccco2)cc1` [Furan-2-carboxylic acid 4-methoxycarbonyl-phenyl ester]: the IC50 was determined as 17.1 µM.

`COc1cc(NC(=O)c2cccs2)c(OC)cc1NC(=O)CCn1nnc2ccccc21` [MLS000027885] gave an IC50 of more than 50 µM.

On to `CCCC(=O)n1nc(-c2ccco2)nc1SCc1ccccc1` [1-[3-(2-furanyl)-5-(phenylmethylthio)-1,2,4-triazol-1-yl]-1-butanone], for which the IC50 is more than 50 µM.

The compound `CNC=C1C(=O)C(C)(C)Oc2ccc3ccc(=O)oc3c21` [(10Z)-8,8-dimethyl-10-(methylaminomethylene)pyrano[2,3-f]chromene-2,9-quinone] displayed an IC50 of more than 50 µM.

In the case of `CC(C)(C)NC(=O)C(c1ccco1)N(Cc1ccc2c(c1)OCO2)C(=O)Cn1nnc2ccccc21` (stereo unspecified) [2-[1,3-benzodioxol-5-ylmethyl-[2-(1-benzotriazolyl)-1-oxoethyl]amino]-N-tert-butyl-2-(2-furanyl)acetamide], the IC50 is more than 50 µM.

As for `CCCN(c1nc(C)cc(OC)n1)S(=O)(=O)c1ccccc1` [MLS000087928], the IC50 was more than 50 µM.

Compound `COc1ccc(CNC(=O)c2cc(-c3ccc(OC)c(OC)c3)on2)cc1` [5-(3,4-dimethoxyphenyl)-N-(4-methoxybenzyl)isoxazole-3-carboxamide] gave an IC50 of more than 50 µM.

`CCC(=O)Nc1cccc(-c2nc3ccccc3c(=O)o2)c1` [MLS000090237] showed an IC50 of 34.7 µM.

`Cc1ccc(CCN2C(=O)CCC2(C)C(=O)NC2CCCC2)cc1` (stereo unspecified) [MLS000120119] showed an IC50 of more than 50 µM.

Regarding `CCN1CCN(C=Nc2nc3c(s2)CCCC3)CC1` [(4-ethylpiperazino)methylene-(4,5,6,7-tetrahydro-1,3-benzothiazol-2-yl)amine], the IC50 is more than 50 µM.

`COC(=O)c1ccccc1NC(=O)c1cc(-c2ccc(OC)c(OC)c2)on1` [2-[[5-(3,4-dimethoxyphenyl)isoxazole-3-carbonyl]amino]benzoic acid methyl ester] registered an IC50 of more than 50 µM.

As to `CCOC(=O)C1CCN(C(=O)c2cc(OCC)c(OCC)c(OCC)c2)CC1` [1-(3,4,5-triethoxybenzoyl)isonipecotic acid ethyl ester], the IC50 was more than 50 µM.

In turn, `O=C(Cn1c(=O)oc2cc(S(=O)(=O)N3CCc4ccccc43)ccc21)N1CCCCC1` [6-(2,3-dihydroindol-1-ylsulfonyl)-3-(2-oxidanylidene-2-piperidin-1-yl-ethyl)-1,3-benzoxazol-2-one] showed an IC50 of more than 50 µM.

In the case of `CCC(=O)Oc1ccc(C(CC)C(CC)c2ccc(OC(=O)CC)cc2)cc1` (stereo unspecified) [HEXESTROL DIPROPIONATE], the IC50 is more than 50 µM.

`O=C(O)COCc1nc2ccccc2[nH]1`: the IC50 was more than 50 µM.

As for `Cc1nn(C)c(C)c1NC(=O)c1ccnn1C` [2-Methyl-2H-pyrazole-3-carboxylic acid (1,3,5-trimethyl-1H-pyrazol-4-yl)-amide], the IC50 is more than 50 µM.

As for `CC1CCCN(C(C(=O)Nc2ccc3c(c2)OCO3)c2ccccc2)C1` (stereo unspecified) [MLS000116117], the IC50 is more than 50 µM.

For `COc1ccc2cc(CCNC(=O)C(C)C)c(=O)[nH]c2c1` [N-[2-(7-methoxy-2-oxo-1H-quinolin-3-yl)ethyl]-2-methylpropanamide], the IC50 was more than 50 µM.

For `Cc1nn(C(=O)c2ccccc2)c2c1C(=O)CC(C)(C)C2` [SMR000069174], half-maximal inhibition (IC50) required 5.35 µM.

Regarding `Cc1ccccc1S(=O)(=O)Cc1ccc(C(=O)NCc2cccnc2)o1` [5-(o-tolylsulfonylmethyl)-N-(3-pyridylmethyl)-2-furamide], the IC50 is more than 50 µM.

On to `O=C(c1ccc2c(c1)OCO2)n1nnc2ccccc21`, for which the IC50 is 0.85 µM.

For the compound `CCc1ccccc1N(C(=O)c1cccs1)C1C=CS(=O)(=O)C1` (stereo unspecified) [MLS000093437], the IC50 was more than 50 µM.

On to `Cc1nc2sc(C(c3cccs3)N3CCN(Cc4ccccc4)CC3)c(O)n2n1` (stereo unspecified) [2-methyl-5-[[4-(phenylmethyl)-1-piperazinyl]-thiophen-2-ylmethyl]-6-thiazolo[3,2-b][1,2,4]triazolol], for which the IC50 was more than 50 µM.

Compound `O=c1c(-c2ccco2)[n+]([O-])c2ccccc2n1OCc1ccccn1` [3-(2-furanyl)-4-oxido-1-(2-pyridinylmethoxy)-2-quinoxalin-4-iumone] displayed an IC50 of 37.9 µM.

For the compound `CCc1cc(=O)oc2cc(C)cc(OC(=O)c3ccco3)c12` [MLS000099547], the IC50 was 10.1 µM.

In the case of `c1ccc(Cc2nn3c(COc4ccccc4)nnc3s2)cc1` [3-(phenoxymethyl)-6-(phenylmethyl)-[1,2,4]triazolo[3,4-b][1,3,4]thiadiazole], the IC50 was more than 50 µM.

For `COc1cccc(C2=Nc3nnnn3C(c3cccc(OC)c3OC)C2)c1` (stereo unspecified), the IC50 was more than 50 µM.

Consider `COc1cccc(N2C(=O)N(c3ccccc3Cl)C3CS(=O)(=O)CC32)c1` (stereo unspecified) [1-(2-chlorophenyl)-3-(3-methoxyphenyl)tetrahydro-1H-thieno[3,4-d]imidazol-2(3H)-one 5,5-dioxide], for which the IC50 is more than 50 µM.
